Test results taken from patent US20140179607A9 (IRONWOOD PHARMACEUTICALS, INC, priority 2009, published 2014).
Positions of bridges follow the written chain, without caps; N, C: chain ends. Non-standard residues stand in square brackets, D forms with d. Residues, ends and D or L forms follow the SMILES beside them. pS = N[C@@H](COP(=O)(O)O)C(=O)O

Columns and labels:
[1] = target: T1, human prostate acid phosphatase (HuPrAP) (Homo sapiens, UniProt P15309); test: Acid phosphatase reaction, human prostate acid phosphatase; type: in vitro ADME; conditions: Human prostatic acid phosphatase pH 5, 90 minutes at 37° C.
T1 construct: purchased MP Biochemicals, Solon, Ohio 153872
T1 sequence (P15309 33-386): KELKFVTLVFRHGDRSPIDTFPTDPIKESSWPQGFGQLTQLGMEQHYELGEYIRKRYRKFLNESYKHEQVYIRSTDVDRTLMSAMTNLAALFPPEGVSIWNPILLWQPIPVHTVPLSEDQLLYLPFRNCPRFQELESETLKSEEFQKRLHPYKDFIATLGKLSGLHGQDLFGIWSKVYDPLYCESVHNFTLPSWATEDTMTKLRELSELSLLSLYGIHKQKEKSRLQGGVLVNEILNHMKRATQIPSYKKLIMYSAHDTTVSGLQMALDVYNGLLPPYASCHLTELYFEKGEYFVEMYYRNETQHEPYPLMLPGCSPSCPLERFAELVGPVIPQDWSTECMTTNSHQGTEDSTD
Procedure: (§1) For the alkaline phosphatase reactions, peptide stocks were prepared at 1 mg/mL in 0.1 M Tris-HCl pH 8, which were stored at −20° C. until assays were conducted. For the acid phosphatase reactions, peptide stocks were prepared at 1 mg/mL in 50 mM sodium phosphate pH 6, which was stored at −20° C. until assays were conducted.
(§2) Potato acid phosphatase (PoAP) was obtained from Sigma, St. Louis, Miss. Cat #P1146 and human prostate acid phosphatase (HuPrAP) was obtained from MP Biochemicals, Solon, Ohio. Cat # 153872. The acid phosphatases were dissolved to provide a solution containing 0.5 units AP/μL using 50 mM sodium acetate pH 5, 0.2 mM MgCl2. The acid phosphatase reactions were assembled in 20 μL quantities containing: • 2 μL 10× acid phosphatase buffer (500 mM sodium acetate pH 5, 2 mM MgCl2) • 2 μL peptide stock (1 mg/mL) • 12 μL H2O • 4 μL acid phosphatase (0.5 or 2 units)
(§3) The reaction solutions were mixed gently and incubated for 90 minutes at 37° C. The reaction solutions were stored at −20° C. for later analysis. For analysis, 7.5 μL acid phosphatase reactions were diluted to 50 μL with 0.1% formic acid in water to a final concentration of 10 μM. The control reactions for enzyme activity were assembled and diluted to 10 mM p-nitrophenylphosphate in place of peptide. After incubation, the reactions were diluted with 0.1 mL of 100 mM borate buffer pH 9 and read at the absorbance of 405 nm to monitor p-nitrophenol appearance.

[2] = system: T2, calf intestinal alkaline phosphatase (CIP); test: Alkaline phosphatase reaction (dephosphorylation of peptide substrates, LCMS); type: in vitro ADME; conditions: calf intestinal alkaline phosphatase (CIP); Alkaline phosphatase pH 8, 90 minutes at 37° C.
T2 construct: purchased New England BioLabs, Ipswich, Mass; M0290S
Procedure: as §1
(§4) Calf intestinal alkaline phosphatase (CIP) was obtained from New England BioLabs, Ipswich, Mass. Cat # M0290S. The CIP reaction solution was prepared by dilution with buffer (50 mM KCl, 10 mM Tris-HCl pH 8, 1 mM MgCl2, 50% glycerol) to 0.5 units/μL. The alkaline phosphatase reaction solutions were assembled in 20 μL quantities containing: • 2 μL 10× CIP buffer (1M NaCl, 500 mM Tris-HCl pH 8, 100 mM MgCl2) • 2 μL peptide stock (1 mg/mL) • 12 μL H2O • 4 μL alkaline phosphatase (0, 0.5 or 2 units)
(§5) The reaction solutions were mixed gently and incubated for 90 minutes at 37° C. These reaction solutions were stored at −20° C. until analysis. For analysis, the reaction solutions were diluted from 7.5 μL of CIP treated peptide to 50 μL with 0.1% formic acid in water to a final concentration of 10 μM.
(§6) Control reactions were assembled for enzyme activity containing 10 mM p-nitrophenylphosphate in place of peptide. After incubation, the reactions were diluted with 0.1 mL of 100 mM borate buffer pH 9 and read at the absorbance of 405 nm to monitor p-nitrophenol appearance.

[3] = target: T3, Calf intestinal alkaline phosphatase (CIP) (Bos taurus, UniProt P19111); test: as above; type: in vitro ADME; conditions: Alkaline phosphatase pH 8, 90 minutes at 37° C.
T3 construct: purchased New England BioLabs, Ipswich, Mass; M0290S
T3 sequence (P19111 20-506): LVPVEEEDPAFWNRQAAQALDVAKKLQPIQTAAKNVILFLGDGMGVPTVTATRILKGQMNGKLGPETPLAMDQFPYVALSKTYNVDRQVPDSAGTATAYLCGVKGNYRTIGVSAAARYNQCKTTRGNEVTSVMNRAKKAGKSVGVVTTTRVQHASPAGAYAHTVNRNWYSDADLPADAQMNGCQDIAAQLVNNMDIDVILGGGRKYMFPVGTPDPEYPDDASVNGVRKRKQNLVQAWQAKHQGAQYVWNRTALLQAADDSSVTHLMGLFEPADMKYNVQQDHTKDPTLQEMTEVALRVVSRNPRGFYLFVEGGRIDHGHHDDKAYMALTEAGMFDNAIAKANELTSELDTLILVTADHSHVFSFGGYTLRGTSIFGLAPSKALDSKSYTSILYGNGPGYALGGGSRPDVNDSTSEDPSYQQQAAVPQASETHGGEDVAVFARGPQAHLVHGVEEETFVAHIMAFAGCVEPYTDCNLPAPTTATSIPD
Procedure: as §1, §4, §5, §6

[4] = system: potato acid phosphatase (PoAP); test: Acid phosphatase reaction, potato acid phosphatase; type: in vitro ADME; conditions: potato acid phosphatase (PoAP); Potato acid phosphatase pH 5, 90 minutes at 37° C.
Procedure: as §1, §2, §3

[5] = system: Potato acid phosphatase (PoAP); test: Acid phosphatase reaction, potato acid phosphatase; type: in vitro ADME; conditions: Potato acid phosphatase pH 5, 90 minutes at 37° C.
Procedure: as §1, §2, §3

female CD-1 mice = test: Gastrointestinal transit in mice (charcoal meal); type: in vivo; conditions: oral gavage, % distance travelled by charcoal front
Procedure: The purpose of the assay was to test the effect of the guanylate cyclase C agonist peptides on in vivo gastrointestinal transit in mice.
For the assay, female CD-1 mice (n=10 per group) weighing 25-30 g were fasted overnight and given access to water ad libitum. Activated charcoal (20 g; 100 mesh; Sigma cat# 242276) was suspended in 200 mL gum arabic (100 mg/mL), and stirred for at least one hour. Test peptides were prepared in a 20 mM Tris pH 6.9 vehicle.
Test peptide and vehicle were administered in 200 μL doses by oral gavage. Seven minutes after dosing the test peptides, 200 μL of the charcoal/gum arabic suspension was dosed by oral gavage. […] The total length of the small intestine was measured from the pyloric junction to the ileocaecal junction. The distance travelled by the charcoal was measured from the pyloric junction to the charcoal front. The Distance Travelled (%) was determined as (distance travelled by charcoal/total length of the small intestine)×100. Data were entered into the GraphPad Prism software program and analyzed by ANOVA using a Bonferroni multiple comparison test post-hoc. Plots of data and ED50 were also determined using the GraphPad Prism software package.
The dose-dependent effects of acute doses of Peptide 4, Peptide 1, Peptide 2, the dephosphorylated form of Peptide 1 and the dephosphorylated form of Peptide 2 on GI transit were determined in female CD mice. […]

[6] = system: ligated rat duodenal loops; test: Fluid secretion in rat intestinal loops; type: in vivo, rats
Procedure: The effect of GC-C agonist peptides on secretion were studied by injecting GC-C agonist peptides described herein directly into an isolated loop in wild-type rats.
Loops were isolated by surgically ligating three loops in the small intestine of the rat. The methodology for ligated loop formation was similar to that described in (London et al., 1997, Am J Physiol, p. G93-105). The loops were roughly centered and at lengths of 1-3 cm. The loops were injected with 200 μl of either peptide/GC-C agonist (0.1-5 μg) or vehicle (20 mM Tris, pH 7.5 or Krebs Ringer, 10 mM Glucose, HEPES buffer (KRGH)). Following a recovery time of up to 90 minutes the loops were excised. Weights were recorded for each loop before and after removal of the fluid contained therein. The length of each loop was also recorded. A weight to length ratio (W/L) for each loop was calculated to determine the effects of the GC-C agonist peptide described herein on secretion. Loop fluid volume was also determined.
Data showing increases in fluid secretion, pH increase and bicarbonate secretion in ligated duodenal loops in rats are shown in FIG. 2 and Table 8. […] Table 8 provides the results in ligated rat duodenal loops using 2.5 μg of peptide per loop.

[7] = 2.5 μg of peptide per loop, duodenal loops

Molecule | Dephospho (%) [1] | remaining at 1.5 h, 0.1 mg/mL ([1]; human prostate acid phosphatase (HuPrAP)) | remaining at 1.5 h, 0.1 mg/mL [2] | Dephospho (%) [3] | remaining at 1.5 h, 0.1 mg/mL [4] | Dephospho (%) [5] | ED50 (μg/kg), acceleration of upper GI transit (female CD-1 mice) | Rate of HCO3^− accumulation [6, 7] | Rate of fluid accumulation [6, 7] | pH [6, 7] | Induction of fluid accumulation / duodenal fluid secretion (FIG. 2) ([6]; ligated rat duodenal loops)
CC(C)C[C@@H]1NC(=O)[C@H](COP(=O)(O)O)NC(=O)[C@@H]2CSSC[C@@H]3NC(=O)[C@H](C)NC(=O)[C@@H]4CCCN4C(=O)[C@H](CC(N)=O)NC(=O)[C@H](CSSC[C@H](N)C(=O)N2)NC(=O)[C@H](CSSC[C@@H](C(=O)N[C@@H](Cc2ccc(O)cc2)C(=O)O)NC(=O)CNC(=O)[C@H]([C@@H](C)O)NC3=O)NC1=O [Peptide 1, CCpSLCCNPACTGCY] (H-CC[pS]LCCNPACTGCY-OH; disulfide 1-6, 2-10, 5-13 (inferred); N-terminus and C-terminus assumed) | 6.2% | 93.8% | 0% | 100% | 77.8% | 22.1% |  |  |  |  | 
CCEFCCNPACTGCY [Peptide 4, GC-C agonist peptide with Glu in place of phosphoserine, used as comparator] |  |  |  |  |  |  | 2.06 µg/kg | 0.00008 Meq/min/cm | 2.0 µL/min/cm | 8.2 | promote duodenal fluid secretion
